Values of other authors as cited in patent publication US10863741B2, “Herbicidal compositions” (HOMS, LLC, priority 2015, dated 2020).

Tested on: male rats
Conditions: chronic exposure

Question: For C=C(C)[C@H]1CC=C(C)CC1 [d-limonene], which Tumor incidence is on record?
Answer: significant incidence of renal tubular tumors
